Assay results from BigSolDB 2.1.

Oc1ccc(/C=C/c2cc(O)cc(O)c2)cc1
solubility (mole fraction)
Details	273.2 K	283.2 K	293.2 K	303.2 K	313.2 K	323.2 K
in acetone	0.0846	0.0858	0.0871	0.0877	0.0886	–
in ethanol	0.0101	0.0127	0.0156	0.0182	0.0208	0.0236
in water	–	–	2.9e-06	4.57e-06	6.46e-06	9.3e-06
